Assay results as given in PMC5272823 (Peptides, 2016).
Ends that are not written are not given here.

Assays:
[1] = ref [10]; cited from earlier work
[2] = format: in vivo, Female C57BL/6J mice; details: glucose 0.35 g/kg i.v. alone; plasma ELISA; n=15

| Molecule | Effect on insulin clearance [1] | Effect on insulin secretion [1] | Insulin peak concentration at 1 min [2] [nmol/L] |
| --- | --- | --- | --- |
| GLP-1 (HAEGTFTSDVSSYLEGQAAKEFIAWLVKGR; ends and bridges not checked; UniProt P01275 98-127, looked up) | diminish insulin clearance | stimulate insulin secretion | – |
| OC[C@H]1OC(O)[C@H](O)[C@@H](O)[C@@H]1O (stereo partly drawn) [glucose] | – | – | 0.9 ± 0.2 |
